Assay results published in PubChem BioAssay AID328 (DTP/NCI, 2004).
Where “and” joins values, the source holds several entries; their conditions need not be identical. Equal entries are not always repeated. Toxic doses and inconclusive results are not listed.

System: BDF1 mice, P388 leukemia ip, median survival T/C
Assay: NCI In Vivo Anticancer Drug Screen. Data for tumor model P388 Leukemia (intraperitoneal) in B6D2F1 (BDF1) mice
Conditions: endpoint: median survival time, higher = longer survival
In short: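 Vehicle-dosed animals serve as the reference; survival of compound-dosed, tumour-implanted mice is divided by it.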

[1] = dose: 100.0 mg/kg/injection, schedule: Q04DX003 (ip), vehicle: saline with Tween-80
[2] = dose: 200.0 mg/kg/injection, schedule: Q04DX003 (ip), vehicle: saline with Tween-80
[3] = dose: 400.0 mg/kg/injection, schedule: Q04DX003 (ip), vehicle: saline with Tween-80
[4] = dose: 12.5 mg/kg/injection, schedule: Q01DX009 (ip), vehicle: Klucel (hydroxypropylcellulose) (HPC)
[5] = dose: 25.0 mg/kg/injection, schedule: Q01DX009 (ip), vehicle: Klucel (hydroxypropylcellulose) (HPC)
[6] = dose: 50.0 mg/kg/injection, schedule: Q01DX009 (ip), vehicle: Klucel (hydroxypropylcellulose) (HPC)
[7] = dose: 100.0 mg/kg/injection, schedule: Q04DX003 (ip), vehicle: Klucel (hydroxypropylcellulose) (HPC)
[8] = dose: 200.0 mg/kg/injection, schedule: Q04DX003 (ip), vehicle: Klucel (hydroxypropylcellulose) (HPC)
[9] = dose: 400.0 mg/kg/injection, schedule: Q04DX003 (ip), vehicle: Klucel (hydroxypropylcellulose) (HPC)
[10] = dose: 100.0 mg/kg/injection, schedule: Q01DX009 (ip), vehicle: saline with Tween-80
[11] = dose: 200.0 mg/kg/injection, schedule: Q01DX009 (ip), vehicle: saline with Tween-80
[12] = dose: 25.0 mg/kg/injection, schedule: Q04DX003 (ip), vehicle: saline
[13] = dose: 12.5 mg/kg/injection, schedule: Q01DX009 (ip), vehicle: saline
[14] = dose: 200.0 mg/kg/injection, schedule: Q01DX009 (ip), vehicle: Klucel (hydroxypropylcellulose) (HPC)

Structure (SMILES): [Se]c1nccn2cnnc12
- T/C (dose: 6.25 mg/kg/injection, schedule: Q01DX001 (ip), vehicle: saline with Tween-80): 122 % of control
- T/C (dose: 12.5 mg/kg/injection, schedule: Q01DX001 (ip), vehicle: saline with Tween-80): 105 % of control
- T/C (dose: 25.0 mg/kg/injection, schedule: Q01DX001 (ip), vehicle: saline with Tween-80): 103 % of control

Structure (SMILES): N/C(=N\O)c1cccnc1
- T/C (dose: 12.5 mg/kg/injection, schedule: Q01DX009 (ip), vehicle: water): 109 % of control
- T/C (dose: 25.0 mg/kg/injection, schedule: Q01DX009 (ip), vehicle: water): 102 % of control
- T/C (dose: 50.0 mg/kg/injection, schedule: Q01DX009 (ip), vehicle: water): 102 % of control
- T/C (dose: 50.0 mg/kg/injection, schedule: Q04DX003 (ip), vehicle: water): 101 % of control and 102 % of control
- T/C (dose: 100.0 mg/kg/injection, schedule: Q01DX009 (ip), vehicle: water): 102 % of control
- T/C (dose: 100.0 mg/kg/injection, schedule: Q04DX003 (ip), vehicle: water): 87 % of control and 105 % of control
- T/C (dose: 200.0 mg/kg/injection, schedule: Q01DX009 (ip), vehicle: water): 107 % of control
- T/C (dose: 200.0 mg/kg/injection, schedule: Q04DX003 (ip), vehicle: water): 100 % of control and 107 % of control
- T/C (dose: 300.0 mg/kg/injection, schedule: Q04DX003 (ip), vehicle: water): 108 % of control
- T/C (dose: 400.0 mg/kg/injection, schedule: Q01DX009 (ip), vehicle: water): 107 % of control

Structure (SMILES): CC/C(=N/O)c1ccccc1
- T/C [1]: 90 % of control
- T/C [2]: 110 % of control
- T/C [3]: 105 % of control

Structure (SMILES): O=C1NC(=O)C2C3C(C(O)(c4ccccc4)c4ccccn4)=CC(/C3=C(\c3ccccc3)c3ccccn3)C12 (stereo unspecified)
- T/C [4]: 100 % of control
- T/C [5]: 113 % of control
- T/C [6]: 86 % of control
- T/C [7]: 109 % of control
- T/C [8]: 100 % of control
- T/C [9]: 100 % of control

Structure (SMILES): COC(=O)C1=C(C)NC2(C)SC1C(C)C2C(=O)OC (stereo unspecified)
- T/C [10]: 107 % of control
- T/C [11]: 98 % of control

Structure (SMILES): NC(c1ccccc1)c1c(O)ccc2ccccc12 (stereo unspecified)
- T/C (dose: 100.0 mg/kg/injection, schedule: Q01DX009 (ip), vehicle: gum acacia): 103 % of control
- T/C (dose: 100.0 mg/kg/injection, schedule: Q04DX003 (ip), vehicle: gum acacia): 109 % of control
- T/C (dose: 200.0 mg/kg/injection, schedule: Q01DX009 (ip), vehicle: gum acacia): 107 % of control
- T/C (dose: 200.0 mg/kg/injection, schedule: Q04DX003 (ip), vehicle: gum acacia): 122 % of control
- T/C (dose: 400.0 mg/kg/injection, schedule: Q01DX009 (ip), vehicle: gum acacia): 117 % of control
- T/C (dose: 400.0 mg/kg/injection, schedule: Q04DX003 (ip), vehicle: gum acacia): 122 % of control

Structure (SMILES): O=C(O)CCCNSc1ccccc1[N+](=O)[O-]
- T/C [10]: 124 % of control

Structure (SMILES): N=C(N)SC1c2cc(Cl)ccc2-c2c(Cl)cc(Cl)cc21 (stereo unspecified)
- T/C (dose: 3.1 mg/kg/injection, schedule: Q01DX010 (ip), vehicle: carboxymethylcellulose (CMC)): 100 % of control
- T/C (dose: 6.2 mg/kg/injection, schedule: Q01DX010 (ip), vehicle: carboxymethylcellulose (CMC)): 110 % of control
- T/C [4]: 100 % of control
- T/C (dose: 12.5 mg/kg/injection, schedule: Q01DX010 (ip), vehicle: carboxymethylcellulose (CMC)): 110 % of control
- T/C [5]: 120 % of control
- T/C (dose: 100.0 mg/kg/injection, schedule: Q01DX010 (ip), vehicle: carboxymethylcellulose (CMC)): 150 % of control

Structure (SMILES): CN(C)CCCNC(=O)Nc1ccccc1
- T/C [7]: 95 % of control
- T/C [8]: 104 % of control

Structure (SMILES): [O-]/[N+](=C\C=C\c1ccccc1)c1ccccc1
- T/C [7]: 100 % of control
- T/C [8]: 86 % of control
- T/C [9]: 90 % of control

Structure (SMILES): CCOC(=O)C(OCc1ccccc1)(C(=O)OCC)C(C)C
- T/C [12]: 115 % of control
- T/C (dose: 50.0 mg/kg/injection, schedule: Q04DX003 (ip), vehicle: saline): 100 % of control
- T/C (dose: 100.0 mg/kg/injection, schedule: Q04DX003 (ip), vehicle: saline): 105 % of control

Structure (SMILES): Cc1c2c(ccc3ccccc32)c[n+]2ccccc12
- T/C (dose: 6.25 mg/kg/injection, schedule: Q01DX009 (ip), vehicle: saline): 105 % of control
- T/C [13]: 122 % of control
- T/C (dose: 12.5 mg/kg/injection, schedule: Q04DX003 (ip), vehicle: saline): 118 % of control
- T/C [12]: 122 % of control

Structure (SMILES): c1ccc2c(c1)C1CC(N3CCCCC3)C2c2ccccc21 (stereo unspecified)
- T/C (dose: 100.0 mg/kg/injection, schedule: Q01DX009 (ip), vehicle: Klucel (hydroxypropylcellulose) (HPC)): 90 % of control
- T/C [7]: 95 % of control
- T/C [14]: 86 % of control
- T/C [8]: 100 % of control
- T/C (dose: 400.0 mg/kg/injection, schedule: Q01DX009 (ip), vehicle: Klucel (hydroxypropylcellulose) (HPC)): 90 % of control
- T/C [9]: 91 % of control

Structure (SMILES): Oc1c(Cl)cc(Cl)cc1C=Nc1cc(C(F)(F)F)ccc1Cl
- T/C (dose: 50.0 mg/kg/injection, schedule: Q01DX009 (ip), vehicle: saline with Tween-80): 87 % of control
- T/C [10]: 89 % of control
- T/C [11]: 99 % of control

Structure (SMILES): COc1cc2c(c(OC)c1OC)CC1c3c(cc4c(c3-2)OCO4)CCN1C (stereo unspecified)
- T/C (dose: 37.5 mg/kg/injection, schedule: Q01DX009 (ip), vehicle: Klucel (hydroxypropylcellulose) (HPC)): 98 % of control
- T/C (dose: 75.0 mg/kg/injection, schedule: Q01DX009 (ip), vehicle: Klucel (hydroxypropylcellulose) (HPC)): 102 % of control
- T/C (dose: 150.0 mg/kg/injection, schedule: Q01DX009 (ip), vehicle: Klucel (hydroxypropylcellulose) (HPC)): 124 % of control

Structure (SMILES): C[N-]N(C)C(=O)[S-].C[N-]N(C)C(=O)[S-].C[N-]N(C)C(=O)[S-].[Co]
- T/C [1]: 105 % of control

Structure (SMILES): C[P+](c1ccc(F)cc1)(c1ccc(F)cc1)c1ccc(F)cc1
- T/C [4]: 86 % of control
- T/C [5]: 104 % of control
- T/C (dose: 25.0 mg/kg/injection, schedule: Q04DX003 (ip), vehicle: Klucel (hydroxypropylcellulose) (HPC)): 104 % of control
- T/C [6]: 109 % of control
- T/C (dose: 50.0 mg/kg/injection, schedule: Q04DX003 (ip), vehicle: Klucel (hydroxypropylcellulose) (HPC)): 90 % of control

Structure (SMILES): COn1nnc2c(Cl)c(Cl)ccc21
- T/C [1]: 95 % of control
- T/C [2]: 92 % of control
- T/C [3]: 100 % of control

Structure (SMILES): CC(=O)OC1CCC2(C)C3CCC4(C)C(O)CCC4C3CC(O)C2(O)C1 (stereo unspecified)
- T/C (dose: 50.0 mg/kg/injection, schedule: Q01DX009 (ip), vehicle: saline): 103 % of control
- T/C (dose: 100.0 mg/kg/injection, schedule: Q01DX009 (ip), vehicle: saline): 88 % of control
- T/C (dose: 200.0 mg/kg/injection, schedule: Q01DX009 (ip), vehicle: saline): 107 % of control

Structure (SMILES): CC1(O)CCC2C3CCC4=CC(=O)CCC4C3CCC21C (stereo unspecified)
- T/C [6]: 113 % of control
- T/C (dose: 65.0 mg/kg/injection, schedule: Q01DX009 (ip), vehicle: Klucel (hydroxypropylcellulose) (HPC)): 94 % of control
- T/C (dose: 66.0 mg/kg/injection, schedule: Q01DX009 (ip), vehicle: Klucel (hydroxypropylcellulose) (HPC)): 95 % of control and 100 % of control
- T/C (dose: 100.0 mg/kg/injection, schedule: Q04DX003 (ip), vehicle: other): 100 % of control
- T/C [14]: 100 % of control and 118 % of control
- T/C (dose: 200.0 mg/kg/injection, schedule: Q04DX003 (ip), vehicle: other): 115 % of control

Structure (SMILES): CN(C)c1ccc2nc3ccc(=[N+](C)C)cc-3sc2c1
- T/C (dose: 2.5 mg/kg/injection, schedule: Q01DX009 (ip), vehicle: saline): 113 % of control
- T/C (dose: 5.0 mg/kg/injection, schedule: Q01DX009 (ip), vehicle: saline): 104 % of control
- T/C (dose: 7.2 mg/kg/injection, schedule: Q04DX003 (ip), vehicle: saline): 110 % of control
- T/C (dose: 10.0 mg/kg/injection, schedule: Q01DX009 (ip), vehicle: saline): 122 % of control
- T/C (dose: 10.0 mg/kg/injection, schedule: Q04DX003 (ip), vehicle: saline): 110 % of control
- T/C (dose: 11.5 mg/kg/injection, schedule: Q04DX003 (ip), vehicle: saline): 100 % of control
- T/C [13]: 100 % of control
- T/C (dose: 16.5 mg/kg/injection, schedule: Q01DX009 (ip), vehicle: saline): 95 % of control and 100 % of control
- T/C (dose: 20.0 mg/kg/injection, schedule: Q01DX009 (ip), vehicle: saline): 104 % of control
- T/C (dose: 25.0 mg/kg/injection, schedule: Q01DX009 (ip), vehicle: saline): 100 % of control and 104 % of control
- T/C (dose: 37.5 mg/kg/injection, schedule: Q01DX009 (ip), vehicle: saline): 95 % of control
- T/C (dose: 37.5 mg/kg/injection, schedule: Q04DX003 (ip), vehicle: saline): 100 % of control
